Where a SMILES comes first, the peptide text is derived from it. [ ]: non-standard residue; d: D form. The star is where a group is joined. Leu(ol) = CC(C)C[C@H](N)CO; dIva = CC[C@@](C)(N)C(=O)O; Octanoyl = CCCCCCCC(=O)*
Legend:
Assay type in all cases: cell-based, human
[1] = test system: HT-29 cells; test: Colony formation assay; details: HT-29, 9 or 18 μM, two weeks, crystal violet, vs untreated control, n = 3
Method: (§1) For colony formation assays, DLD-1 and HT-29 cells were seeded into 6-well plates at a density of 800 cells per well. […] The culture medium was refreshed every four days. After two weeks of continuous culture, colonies were fixed with 4% paraformaldehyde for 15 min and subsequently stained with crystal violet solution (Yuanye, Shanghai, China) for 20 min. Colony formation was quantified using ImageJ 1.54g software.

[2] = test system: DLD-1 cells; test: Colony formation assay; details: DLD-1, 9 or 18 μM, two weeks, crystal violet, vs untreated control, n = 3
Method: as §1

[3] = test system: HT-29 cells; test: Calcein-AM/PI staining assay; details: HT-29, 18 μM, 0, 6, 12 and 18 h, fluorescence microscopy
Method: (§2) For the Calcein-AM/PI staining assay, DLD-1 and HT-29 cells were seeded in 24-well plates at 5 × 10^4 cells per well. […] After incubation for 0, 6, 12, and 18 h, cells were stained by using the calcein AM (MedChem Express (Monmouth Junction, NJ, USA), 5 μM) and propidium iodide (MedChem Express, 50 μg/mL). The cells were incubated in the dark at 37 °C for 30 min, followed by imaging with an inverted fluorescence microscope.

[4] = test system: DLD-1 cells; test: Calcein-AM/PI staining assay; details: DLD-1, 18 μM, 0, 6, 12 and 18 h, fluorescence microscopy
Method: as §2

[5] = test system: phosphorylated ERK1/2 (p-ERK) in HT-29 cells; test: Western blot of phosphorylated ERK1/2; details: HT-29, 9 and 18 μM, 24 h
Method: (§3) Western blotting was performed as previously described. […] Cells were washed twice with PBS and lysed in RIPA buffer (Beyotime Biotechnology, Jiangsu, China) on ice for 30 min. Lysates were centrifuged at 12,000 rpm for 20 min at 4 °C, and the supernatant containing total protein was collected. Equal amounts of protein were separated by SDS-PAGE and transferred onto polyvinylidene fluoride (PVDF) membranes. Membranes were blocked with 5% non-fat milk at room temperature for 1 h, followed by incubation with the appropriate primary and secondary antibodies. Protein bands were visualized using the Omni-ECL Femto Light Chemiluminescence Kit (Epizyme, Shanghai, China) and imaged with the Amersham Imager 680 (Cytiva, Marlborough, MA, USA).

[6] = test system: phosphorylated ERK1/2 (p-ERK) in DLD-1 cells; test: Western blot of phosphorylated ERK1/2; details: DLD-1, 9 and 18 μM, 24 h
Method: as §3

[7] = test system: HT-29 cells; test: Cell cycle analysis by flow cytometry (PI); details: HT-29, 24 h of exposure, in words
Method: (§4) Following treatment, cells were collected, washed, and fixed in 75% pre-chilled ethanol at −20 °C for 24 h. After fixation, cells were centrifuged, washed twice with cold PBS, and stained with propidium iodide (PI, 0.1 mg/mL) in the presence of RNase A (0.1 mg/mL) at 37 °C for 30 min. Cell cycle distribution was analyzed by flow cytometry (LSRFortessa, BD, Canton, MA, USA). To enhance the clarity of the results, cell populations were selectively gated using the ModFit LT 5.0 software.

[8] = test system: DLD-1 cells; test: Cell cycle analysis by flow cytometry (PI); details: DLD-1, 24 h of exposure, in words
Method: as §4

In the case of `CCCCCCCC(=O)NCC(=O)N[C@@H](Cc1ccccc1)C(=O)N[C@@H](CC(C)C)C(=O)N[C@](C)(CC)C(=O)N[C@@H](C)C(=O)N[C@@H](CC(C)C)C(=O)N[C@H](CO)CC(C)C` [Compound 1, lipotrichaibol A] (Octanoyl-GFL[dIva]AL[Leu(ol)]), the “number of colony-forming cells” value [1] is reported as “markedly reduced”, the “number of colony-forming cells” value [2] is reported as “markedly reduced” and the “cell proliferation and dead cells (Calcein-AM/PI staining)” value [3] is reported as “pronounced reduction in cell proliferation”. The “cell proliferation and dead cells (Calcein-AM/PI staining)” value [4] was “pronounced reduction in cell proliferation”, the “levels of phosphorylated ERK1/2 (p-ERK)” value [5] was “significantly reduced” and the “levels of phosphorylated ERK1/2 (p-ERK)” value [6] was “significantly reduced”. For the same compound, the “proportion of cells in the G0/G1 phase” value [7] was “significant increase” and the “proportion of cells in the G0/G1 phase” value [8] was “significant increase”.

From PMC12298237 (Marine Drugs, 2025)
